From patent US20100120700A1, “METHODS AND COMPOSITIONS FOR TREATING CERVICAL CANCER” (priority 2000, published 2010)
Entries after “also recorded” stand apart in the source; their conditions may differ.

Tests used:
[1] = target: T1, AF6 domain 1 (Homo sapiens, UniProt P55196); test: G assay PDZ-PL binding; details: peptide 10 uM, protein 5
T1 construct: made in house; host or cells: E. coli (DH5alpha or BL-21)

[2] = system: human PDZ domains; test: G assay, E6 PL peptides against PDZ domain panel; details: value names the PDZ domain(s) that saturated binding with the E6 peptide; signal classes (A450 nm 3-4 or 4)
Protocol: (1) A PDZ-domain polypeptide is bound to a surface, e.g. a protein binding surface. In a preferred embodiment, a GST/PDZ fusion protein containing one or more PDZ domains is bound to a polystyrene 96-well plate. […] In one embodiment, the GST/PDZ fusion protein is bound via an anti-GST antibody that is coated onto the 96-well plate. Adequate binding to the plate can be achieved when: • a. 100 uL per well of 5 ug/mL goat anti-GST polyclonal antibody (Pierce) in PBS is added to a polystyrene 96-well plate (e.g., Num Polysorb) at 4° C. for 12 hours. • b. The plate is blocked by addition of 200 uL per well of PBS/BSA for 2 hours at 4° C. • c. The plate is washed 3 times with PBS. • d. […]
(3) The binding of the biotinylated peptide to the GST/PDZ fusion protein surface can be detected using a variety of methods and detectors known to one of skill in the art. […] The reaction of the HRP and its substrate is terminated by addition of 100 uL per well of 1M sulfuric acid, and the absorbance of each well of the plate is read at 450 nm.
(4) Specific binding of a PL peptide and a PDZ domain polypeptide is determined by comparing the signal from the well(s) in which the PL peptide and PDZ domain polypeptide are combined, with the background signal(s). […]

[3] = target: T2, TIP1 (Homo sapiens, UniProt O14907); test: G assay peptide titration (EC50); assay type: binding; details: E6 peptide titrated against constant GST-PDZ
T2 construct: made in house; host or cells: E. coli (DH5alpha, BL21 or JM109)
T2 sequence (O14907 14-116): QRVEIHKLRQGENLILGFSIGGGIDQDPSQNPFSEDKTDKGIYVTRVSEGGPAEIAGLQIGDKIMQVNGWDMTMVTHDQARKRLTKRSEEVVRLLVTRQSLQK
Protocol: (1) A GST/PDZ fusion protein, as well as GST alone as a negative control, are bound to a surface (e.g., a 96-well plate) and the surface blocked and washed as described supra for the “G” assay.
(2) 50 uL per well of a solution of biotinylated PL peptide (e.g. as shown in TABLE 2) is added to the surface in increasing concentrations in PBS/BSA (e.g. at 0.1 uM, 0.33 uM, 1 uM, 3.3 uM, 10 uM, 33 uM, and 100 uM). In one embodiment, the PL peptide is allowed to react with the bound GST/PDZ fusion protein (as well as the GST alone negative control) for 10 minutes at 4° C. followed by 20 minutes at 25° C. The plate is washed 3 times with ice cold PBS to remove unbound labeled peptide.
(3) The binding of the PL peptide to the immobilized PDZ-domain polypeptide is detected as described supra for the “G” assay.
(4) For each concentration of peptide, the net binding signal is determined by subtracting the binding of the peptide to GST alone from the binding of the peptide to the GST/PDZ fusion protein. […]
Relative binding affinities for the 14 most significant interactions with different PDZ domains were determined by E6 peptide titrations.

T1 sequence (P55196 1001-1093): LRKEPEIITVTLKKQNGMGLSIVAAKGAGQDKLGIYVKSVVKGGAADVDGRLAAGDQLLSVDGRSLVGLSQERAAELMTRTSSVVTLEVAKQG

20 mer peptide corresponding to the C-terminus of HPV16 E6 (PDZ ligand), biotinylated in binding assays; ends SSRTRRETQL (SEQ ID NO: 13) [HPV E6 #16]
Ave OD ([1]; A450 nm): 0.444 | OD S/N ([1]; vs GST only well): 1.80 | PDZ binding partner (signal 4 and 5 of 0-5) [2]: TIP-1; also recorded: Magi1 (PDZ #2) | EC50 [3]: 750 nM
